# Experimental data from patent US10294202B2, “Pyrrolidinones as herbicides” (FMC Corporation, priority 2013, dated 2019).
# Key:
# barnyardgrass [1] = test: Test A pre-/postemergence herbicide test; type: in vivo, Echinochloa crus-galli; conditions: for Barnyardgrass plant response rating: Preemergence, visual rating on 0 to 100 scale (0 no effect, 100 complete control)
# Method in brief: (§1)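 Seeds in loam–sand blend received preemergence directed soil spray; separately, plants 2–10 cm at one- to two-leaf stage received postemergence spray, both with test chemicals in non-phytotoxic solvent with surfactant. After ~10 days in greenhouse, injury rated visually against untreated controls, 0 (no effect) to 100 (complete control).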
# crabgrass, large = test: Test A pre-/postemergence herbicide test; type: in vivo, Digitaria sanguinalis; conditions: for Crabgrass, Large plant response rating: Preemergence, visual rating on 0 to 100 scale (0 no effect, 100 complete control)
# Method in brief: as §1
# giant foxtail = test: Test A pre-/postemergence herbicide test; type: in vivo, Setaria faberii; conditions: for Foxtail, Giant plant response rating: Preemergence, visual rating on 0 to 100 scale (0 no effect, 100 complete control)
# Method in brief: as §1
# morningglory = test: Test A pre-/postemergence herbicide test; type: in vivo, Ipomoea spp.; conditions: for Morningglory plant response rating: Preemergence, visual rating on 0 to 100 scale (0 no effect, 100 complete control)
# Method in brief: as §1
# pigweed = test: Test A pre-/postemergence herbicide test; type: in vivo, Amaranthus retroflexus; conditions: for Pigweed plant response rating: Preemergence, visual rating on 0 to 100 scale (0 no effect, 100 complete control)
# Method in brief: as §1
# velvetleaf = test: Test A pre-/postemergence herbicide test; type: in vivo, Abutilon theophrasti; conditions: for Velvetleaf plant response rating: Preemergence, visual rating on 0 to 100 scale (0 no effect, 100 complete control)
# Method in brief: as §1
# wheat = test: Test A pre-/postemergence herbicide test; type: in vivo, Triticum aestivum; conditions: for Wheat plant response rating: Preemergence, visual rating on 0 to 100 scale (0 no effect, 100 complete control)
# Method in brief: as §1
# corn = test: Test A pre-/postemergence herbicide test; type: in vivo, Zea mays; conditions: for Corn plant response rating: Preemergence, visual rating on 0 to 100 scale (0 no effect, 100 complete control)
# Method in brief: as §1
# rice = test: Test B flooded paddy test; type: in vivo, Oryza sativa; conditions: 250 g ai/ha, Flood; scale of 0 to 100 where 0 is no effect and 100 is complete control
# Method in brief: (§2)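 Paddy-water application at a 3 cm flood, young plants having two leaves. Water level maintained; greenhouse, 13–15 days; visual 0–100 control rating.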
# sedge, umbrella = test: Test B flooded paddy test; type: in vivo, Cyperus difformis; conditions: 250 g ai/ha, Flood; scale of 0 to 100 where 0 is no effect and 100 is complete control
# Method in brief: as §2
# ducksalad = test: Test B flooded paddy test; type: in vivo, Heteranthera limosa; conditions: 250 g ai/ha, Flood; scale of 0 to 100 where 0 is no effect and 100 is complete control
# Method in brief: as §2
# barnyardgrass [2] = test: Test B flooded paddy test; type: in vivo, Echinochloa crus-galli; conditions: 250 g ai/ha, Flood; scale of 0 to 100 where 0 is no effect and 100 is complete control
# Method in brief: as §2
# [3] = Postemergence, 125 g ai/ha, 0 to 100 scale, 0 no effect, 100 complete control
# [4] = Postemergence, 500 g ai/ha, 0 to 100 scale (0 no effect, 100 complete control)
# [5] = preemergence, 500 g ai/ha, 0 to 100 scale (0 no effect, 100 complete control)
# [6] = preemergence, 500 g ai/ha, 0 to 100 scale
Compound,"Plant response rating, Barnyardgrass (barnyardgrass [1]; [3])","Plant response rating, Barnyardgrass (barnyardgrass [1]; [4])",Barnyardgrass plant response rating (barnyardgrass [1]; 125 g ai/ha),"Plant response rating, Barnyardgrass (barnyardgrass [1]; [5])","Plant response rating, Crabgrass, Large (crabgrass, large; [3])","Plant response rating, Crabgrass, Large (crabgrass, large; [4])","Crabgrass, Large plant response rating (crabgrass, large; 125 g ai/ha)","Plant response rating, Crabgrass, Large (crabgrass, large; [6])","Plant response rating, Foxtail, Giant (giant foxtail; [3])","Plant response rating, Foxtail, Giant (giant foxtail; [4])","Foxtail, Giant plant response rating (giant foxtail; 125 g ai/ha)","Plant response rating, Foxtail, Giant (giant foxtail; [6])","Plant response rating, Morningglory (morningglory; [3])","Plant response rating, Morningglory (morningglory; [4])","Plant response rating, Pigweed (pigweed; [3])","Plant response rating, Pigweed (pigweed; [4])",Pigweed plant response rating (pigweed; 125 g ai/ha),"Plant response rating, Pigweed (pigweed; [6])","Plant response rating, Velvetleaf (velvetleaf; [3])","Plant response rating, Velvetleaf (velvetleaf; [4])",further results
O=C1NCC(c2ccc(Cl)nc2)C1C(=O)Nc1ccccc1F (centres unmarked) [Compound 41],0,50,30,60,30,60,60,90,0,0,10,70,0,0,0,30,0,0,0,30,"Velvetleaf plant response rating (velvetleaf; 125 g ai/ha): 0; Plant response rating, Velvetleaf (velvetleaf; [6]): 0; Plant response rating, Wheat (wheat; [3]): 0; Plant response rating, Wheat (wheat; [4]): 0; Wheat plant response rating (wheat; 125 g ai/ha): 0; Plant response rating, Wheat (wheat; [6]): 0; Plant response rating, Corn (corn; [3]): 0; Plant response rating, Corn (corn; [4]): 0; Corn plant response rating (corn; 125 g ai/ha): 0; Plant response rating, Corn (corn; [6]): 0; Plant response rating, Rice (rice): 0; Plant response rating, Sedge, Umbrella (sedge, umbrella): 20; Plant response rating, Ducksalad (ducksalad): 70; Plant response rating, Barnyardgrass (barnyardgrass [2]): 0"
O=C1NCC(c2ccc3c(c2)OC(F)(F)O3)C1C(=O)Nc1ccccc1C(F)(F)F (racemic) [Compound 75],40,70,50,70,60,80,90,90,70,80,80,90,0,0,0,0,0,0,10,20,"Morningglory plant response rating (morningglory; 125 g ai/ha): 0; Plant response rating, Morningglory (morningglory; [6]): 0; Velvetleaf plant response rating (velvetleaf; 125 g ai/ha): 0; Plant response rating, Velvetleaf (velvetleaf; [6]): 0; Plant response rating, Wheat (wheat; [3]): 0; Plant response rating, Wheat (wheat; [4]): 30; Wheat plant response rating (wheat; 125 g ai/ha): 0; Plant response rating, Wheat (wheat; [6]): 30; Plant response rating, Corn (corn; [3]): 0; Plant response rating, Corn (corn; [4]): 0; Corn plant response rating (corn; 125 g ai/ha): 0; Plant response rating, Corn (corn; [6]): 0; Plant response rating, Rice (rice): 0; Plant response rating, Sedge, Umbrella (sedge, umbrella): 0; Plant response rating, Ducksalad (ducksalad): 0; Plant response rating, Barnyardgrass (barnyardgrass [2]): 0"
O=C1NCC(c2ccc(F)c(F)c2)C1C(=O)Nc1ccccn1 (centres unmarked) [Compound 45],50,80,10,80,60,80,80,90,20,70,50,80,40,50,0,0,0,0,0,0,"Morningglory plant response rating (morningglory; 125 g ai/ha): 0; Plant response rating, Morningglory (morningglory; [6]): 0; Velvetleaf plant response rating (velvetleaf; 125 g ai/ha): 0; Plant response rating, Velvetleaf (velvetleaf; [6]): 0; Plant response rating, Wheat (wheat; [3]): 0; Plant response rating, Wheat (wheat; [4]): 0; Wheat plant response rating (wheat; 125 g ai/ha): 0; Plant response rating, Wheat (wheat; [6]): 0; Corn plant response rating (corn; 125 g ai/ha): 0; Plant response rating, Corn (corn; [6]): 0; Plant response rating, Rice (rice): 20; Plant response rating, Sedge, Umbrella (sedge, umbrella): 40; Plant response rating, Ducksalad (ducksalad): 80; Plant response rating, Barnyardgrass (barnyardgrass [2]): 0"
Cc1cccc(C2CNC(=O)C2C(=O)Nc2ccccc2F)c1 (racemic) [Compound 38],0,30,0,80,0,50,70,80,0,20,0,30,0,0,0,0,0,0,0,0,"Morningglory plant response rating (morningglory; 125 g ai/ha): 0; Plant response rating, Morningglory (morningglory; [6]): 0; Velvetleaf plant response rating (velvetleaf; 125 g ai/ha): 0; Plant response rating, Velvetleaf (velvetleaf; [6]): 0; Plant response rating, Wheat (wheat; [3]): 0; Plant response rating, Wheat (wheat; [4]): 0; Wheat plant response rating (wheat; 125 g ai/ha): 0; Plant response rating, Wheat (wheat; [6]): 0; Plant response rating, Corn (corn; [3]): 0; Plant response rating, Corn (corn; [4]): 0; Corn plant response rating (corn; 125 g ai/ha): 0; Plant response rating, Corn (corn; [6]): 0; Plant response rating, Rice (rice): 0; Plant response rating, Sedge, Umbrella (sedge, umbrella): 0; Plant response rating, Ducksalad (ducksalad): 0; Plant response rating, Barnyardgrass (barnyardgrass [2]): 0"
